Reference: patent US10865194B2, “Therapeutically active bicyclic-sulphonamides and pharmaceutical compositions” (FONDAZIONE ISTITUTO ITALIANO DI TECNOLOGIA, priority 2017, dated 2020)

Biological target: T1, human NAAA (Homo sapiens, UniProt Q02083)
T1 construct: expressed in transfected cells; host or cells: HEK-293 (stably transfected, G418 selection); enzyme-enriched lysate
T1 sequence (Q02083 126-359 limits assumed): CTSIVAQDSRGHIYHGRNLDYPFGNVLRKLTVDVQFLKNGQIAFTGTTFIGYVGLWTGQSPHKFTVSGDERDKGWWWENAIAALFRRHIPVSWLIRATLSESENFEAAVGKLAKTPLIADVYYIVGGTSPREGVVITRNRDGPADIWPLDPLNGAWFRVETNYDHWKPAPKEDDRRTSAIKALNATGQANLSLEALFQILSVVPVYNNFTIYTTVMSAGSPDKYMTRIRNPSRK
T1 sequence (Q02083 29-125 limits assumed): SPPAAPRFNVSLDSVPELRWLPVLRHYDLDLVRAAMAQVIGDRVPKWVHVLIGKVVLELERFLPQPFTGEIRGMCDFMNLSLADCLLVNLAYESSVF
Experiment: In vitro human NAAA fluorogenic assay
Assay type: biochemical
Details: enzyme-enriched lysate of HEK-293 cells stably transfected with human NAAA; read-out: Activity h-NAAA Fluorogenic assay
Description: Human recombinant proteins were obtained from HEK-293 stable overexpressing NAAA cell lines. Cells were grown in Dulbecco's modified Eagle medium (DMEM) containing 10% FBS, 1% penicillin/streptomycin, 1% glutamine and 500 μg/mL G418. To obtain membrane preparation cells were scraped off with cold phosphate-buffered saline (PBS) and collected by centrifugation (300×g, 7 min, 4° C.). Cell pellet were stored at −80° C. until protein preparation.
In Vitro Human NAAA Assay
Preparation of Enzyme-Enriched Lysate (h-NAAA).
HEK-293 cells stably transfected with the human NAAA coding sequences were used as enzyme source. Cell pellets were suspended in 20 mM Tris HCl (pH 7.4) with 0.32 M sucrose, sonicated and centrifuged at 800×g for 30 min at 4° C. Supernatants were then ultracentrifuged at 12,000×g for 30 min at 4° C. Pellets were re-suspended in PBS buffer (pH 7.4) and subjected to three freeze-thaw cycles at −80° C. The suspension was finally ultracentrifuged at 105,000×g for 1 h at 4° C., supematants were collected, protein concentration was measured and samples aliquoted and stored at −80° C. until use.
The results are summarized in Table 3 as follows, wherein +: IC50>2 μM; ++: 1.0 μM<IC50<2 μM; +++: IC50<1 μM: […]

Compound: Cc1n[nH]c(C)c1S(=O)(=O)N1C2CCCC1CC(Oc1cnccn1)C2 [Example 45, (1R,3s,5S)-9-[(3,5-Dimethyl-1H-pyrazol-4-yl)sulfonyl]-3-(pyrazin-2-yloxy)-9-azabicyclo[3.3.1]nonane]
- IC50: > 2000 nM

Compound: Cc1n[nH]c(C)c1S(=O)(=O)N1C2CCC1CC(Oc1ccc(CO)cc1)C2 [Example 31, (1R,3r,5S)-3-(4-Hydroxymethyl-phenoxy)-8-[(3,5-dimethyl-1H-pyrazol-4-yl)sulfonyl]-8-azabicyclo[3.2.1]octane]
- IC50: < 1000 nM

Compound: Cc1n[nH]c(C)c1S(=O)(=O)N1C2CCC1CC(Oc1ccc(C(C)C)cc1)C2 [Example 18, (1R,3r,5S)-3-(4-Isopropylphenoxy)-8-[(3,5-dimethyl-1H-pyrazol-4-yl)sulfonyl]-8-azabicyclo[3.2.1]octane]
- IC50: < 1000 nM

Compound: Cc1n[nH]c(C)c1S(=O)(=O)N1C2CCC1CC(Oc1ccc(-c3ccccc3)cc1)C2 [Example 06, (1R,3r,5S)-3-(4-phenylphenoxy)-8-[(3,5-dimethyl-1H-pyrazol-4-yl)sulfonyl]-8-azabicyclo[3.2.1]octane]
- IC50: 1000 to 2000 nM

Compound: CCN(CC)Cc1ccc(OC2CC3CCC(C2)N3S(=O)(=O)c2c(C)n[nH]c2C)cc1 [Example 32, (1R,3r,5S)-3-[4-Diethylaminomethyl-phenoxy]-8-[(3,5-dimethyl-1H-pyrazol-4-yl)sulfonyl]-8-azabicyclo[3.2.1]octane]
- IC50: > 2000 nM

Compound: Cc1ccc(OC2CC3CCC(C2)N3S(=O)(=O)c2c(C)n[nH]c2C)cc1 [Example 07, (1R,3r,5S)-3-(4-methylphenoxy)-8-[(3,5-dimethyl-1H-pyrazol-4-yl)sulfonyl]-8-azabicyclo[3.2.1]octane]
- IC50: < 1000 nM

Compound: CCCCc1ccc(OC2CC3CCC(C2)N3S(=O)(=O)c2cc(C)sc2C)cc1 [Example 16, (1R,3r,5S)-3-(4-Butylphenoxy)-8-[(2,5-dimethyl-3-thienyl)sulfonyl]-8-azabicyclo[3.2.1]octane]
- IC50: > 2000 nM

Compound: Cc1n[nH]c(C)c1S(=O)(=O)N1C2CCC1CC(Oc1ccccc1)C2 [Example 02, (1R,3r,5S)-8-[(3,5-Dimethyl-1H-pyrazol-4-yl)sulfonyl]-3-phenoxy-8-azabicyclo[3.2.1]octane]
- IC50: < 1000 nM

Compound: Cc1n[nH]c(C)c1S(=O)(=O)N1[C@@H]2CC[C@H]1C[C@H](Oc1cccnn1)C2 [Example 43, (1R,3s,5S)-8-[(3,5-Dimethyl-1H-pyrazol-4-yl)sulfonyl]-3-pyridazin-3-yloxy-8-azabicyclo[3.2.1]octane]
- IC50: > 2000 nM

Compound: COc1ccc(O[C@H]2C[C@H]3CC[C@@H](C2)N3S(=O)(=O)c2c(C)n[nH]c2C)cc1 [Example 24, (1R,3r,5S)-3-(4-Methoxyphenoxy)-8-[(3,5-dimethyl-1H-pyrazol-4-yl)sulfonyl]-8-azabicyclo[3.2.1]octane]
- IC50: < 1000 nM

Compound: CCCOc1ccc(OC2CC3CCC(C2)N3S(=O)(=O)c2c(C)n[nH]c2C)cc1 [Example 26, (1R,3r,5S)-3-(4-Propoxyphenoxy)-8-[(3,5-dimethyl-1H-pyrazol-4-yl)sulfonyl]-8-azabicyclo[3.2.1]octane]
- IC50: < 1000 nM

Compound: Cc1n[nH]c(C)c1S(=O)(=O)N1C2CCC1CC(Oc1cnccn1)C2 [Example 13, (1R,3r,5S)-8-[(3,5-Dimethyl-1H-pyrazol-4-yl)sulfonyl]-3-pyrazin-2-yloxy-8-azabicyclo[3.2.1]octane]
- IC50: < 1000 nM

Compound: Cc1ccccc1OC1CC2CCC(C1)N2S(=O)(=O)c1c(C)n[nH]c1C [Example 12, (1R,3r,5S)-3-(2-methylphenoxy)-8-[(3,5-dimethyl-1H-pyrazol-4-yl)sulfonyl]-8-azabicyclo[3.2.1]octane]
- IC50: < 1000 nM

Compound: Cc1n[nH]c(C)c1S(=O)(=O)N1C2CCC1CC(Oc1nc3ccccc3o1)C2 [Example 23, (1R,3r,5S)-8-[(3,5-Dimethyl-1H-pyrazol-4-yl)sulfonyl]-3-(2-benzoxazoloxy)-8-azabicyclo[3.2.1]octane]
- IC50: < 1000 nM

Compound: Cc1n[nH]c(C)c1S(=O)(=O)N1C2CCC1CC(Oc1ccc(F)cc1)C2 [Example 42, (1R,3r,5S)-3-(4-Fluoro-phenoxy)-8-[(3,5-dimethyl-1H-pyrazol-4-yl)sulfonyl]-8-azabicyclo[3.2.1]octane]
- IC50: < 1000 nM

Compound: CCCCc1ccc(OC2CC3CCC(C2)N3S(=O)(=O)c2c(C(C)C)n[nH]c2C)cc1 [Example 20, (1R,3r,5S)-3-(4-Butylphenoxy)-8-[(3-isopropyl-5-methyl-1H-pyrazol-4-yl)sulfonyl]-8-azabicyclo[3.2.1]octane]
- IC50: < 1000 nM

Compound: Cc1n[nH]c(C)c1S(=O)(=O)N1C2COCC1CC(Oc1cnccn1)C2 [Example 46, (1R,3s,5S)-9-[(3,5-Dimethyl-1H-pyrazol-4-yl)sulfonyl]-7-pyrazin-2-yloxy-3-oxa-9-azabicyclo[3.3.1]nonane]
- IC50: > 2000 nM

Compound: (1R,3r,5S)-3-(4-Hexylphenoxy)-8-[(3,5-dimethyl-1H-pyrazol-4-yl)sulfonyl]-8-azabicyclo[3.2.1]octane [Example 19]
- IC50: < 1000 nM

Compound: Cc1ccc(OC2CC3CCC(C2)N3S(=O)(=O)c2c(C)n[nH]c2C)nc1 [Example 27, (1R,3r,5S)-8-[(3,5-Dimethyl-1H-pyrazol-4-yl)sulfonyl]-3-[(5-methyl-2-pyridil)oxy]-8-azabicyclo[3.2.1]octane]
- IC50: < 1000 nM

Compound: Cc1n[nH]c(C)c1S(=O)(=O)N1C2CCC1CC(Oc1cnc3ccccc3n1)C2 [Example 34, (1R,3r,5S)-8-[(3,5-Dimethyl-1H-pyrazol-4-yl)sulfonyl]-3-(2-quinoxalyloxy)-8-azabicyclo[3.2.1]octane]
- IC50: > 2000 nM

Compound: Cc1n[nH]c(C)c1S(=O)(=O)N1C2CCCC1CC(Oc1cnccn1)C2 [Example 44, (1R,3r,5S)-9-[(3,5-Dimethyl-1H-pyrazol-4-yl)sulfonyl]-3-(pyrazin-2-yloxy)-9-azabicyclo[3.3.1]nonane]
- IC50: < 1000 nM

Compound: Cc1n[nH]c(C)c1S(=O)(=O)N1C2CCC1CC(Oc1ccc(Cl)cc1)C2 [Example 39, (1R,3r,5S)-3-(4-Chloro-phenoxy)-8-[(3,5-dimethyl-1H-pyrazol-4-yl)sulfonyl]-8-azabicyclo[3.2.1]octane]
- IC50: < 1000 nM

Compound: Cc1n[nH]c(C)c1S(=O)(=O)N1C2CCC1CC(Oc1ccccn1)C2 [Example 25, (1R,3r,5S)-8-[(3,5-Dimethyl-1H-pyrazol-4-yl)sulfonyl]-3-(2-pyridiloxy)-8-azabicyclo[3.2.1]octane]
- IC50: < 1000 nM

Compound: CCc1ccc(OC2CC3CCC(C2)N3S(=O)(=O)c2c(C)n[nH]c2C)cc1 [Example 17, (1R,3r,5S)-3-(4-Ethylphenoxy)-8-[(3,5-dimethyl-1H-pyrazol-4-yl)sulfonyl]-8-azabicyclo[3.2.1]octane]
- IC50: < 1000 nM

Compound: Cc1n[nH]c(C)c1S(=O)(=O)N1C2CCC1CC(Oc1ccc(C=O)cc1)C2 [Example 30, (1R,3r,5S)-3-(4-Formyl-phenoxy)-8-[(3,5-dimethyl-1H-pyrazol-4-yl)sulfonyl]-8-azabicyclo[3.2.1]octane]
- IC50: < 1000 nM

Compound: Cc1ccccc1OC1CC2CCC(C1)N2S(=O)(=O)c1c(C)n[nH]c1C [Example 11, (1R,3s,5S)-3-(2-methylphenoxy)-8-[(3,5-dimethyl-1H-pyrazol-4-yl)sulfonyl]-8-azabicyclo[3.2.1]octane]
- IC50: > 2000 nM

Compound: Cc1ccc2oc(OC3CC4CCC(C3)N4S(=O)(=O)c3c(C)n[nH]c3C)nc2c1 [Example 38, (1R,3r,5S)-8-[(3,5-Dimethyl-1H-pyrazol-4-yl)sulfonyl]-3-(2-(5-methyl)-benzoxazoloxy)-8-azabicyclo[3.2.1]octane]
- IC50: < 1000 nM

Compound: Cc1n[nH]c(C)c1S(=O)(=O)N1C2COCC1CC(Oc1cnccn1)C2 [Example 47, (1R,3r,5S)-9-[(3,5-Dimethyl-1H-pyrazol-4-yl)sulfonyl]-7-pyrazin-2-yloxy-3-oxa-9-azabicyclo[3.3.1]nonane]
- IC50: > 2000 nM

Compound: Cc1n[nH]c(C)c1S(=O)(=O)N1C[C@H]2COC[C@@H](C1)[C@H]2Oc1cnccn1 [Example 48, (1R,5S,9r)-7-((3,5-Dimethyl-1H-pyrazol-4-yl)sulfonyl)-9-(pyrazin-2-yloxy)-3-oxa-7-azabicyclo[3.3.1]nonane]
- IC50: > 2000 nM

Compound: Cc1ccc(OC2CC3CCC(C2)N3S(=O)(=O)c2c(C)n[nH]c2C)nn1 [Example 53, (1R,3r,5S)-8-[(3,5-Dimethyl-1H-pyrazol-4-yl)sulfonyl]-3-(6-methylpyridazin-3-yl)oxy-8-azabicyclo[3.2.1]octane]
- IC50: > 2000 nM

Compound: Cc1n[nH]c(C)c1S(=O)(=O)N1C2CCC1CC(Oc1nc3c(C)cccc3o1)C2 [Example 28, (1R,3r,5S)-8-[(3,5-Dimethyl-1H-pyrazol-4-yl)sulfonyl]-3-(2-(4-methyl)-benzoxazoloxy)-8-azabicyclo[3.2.1]octane]
- IC50: > 2000 nM

Compound: Cc1n[nH]c(C)c1S(=O)(=O)N1C2CCC1CC(Oc1ccc3ccccc3n1)C2 [Example 22, (1R,3r,5S)-8-[(3,5-Dimethyl-1H-pyrazol-4-yl)sulfonyl]-3-(2-quinolyloxy)-8-azabicyclo[3.2.1]octane]
- IC50: > 2000 nM
